Measured values: patent EP4772634A1, “DOUBLE-STRANDED RNA TARGETING COAGULATION FACTOR XI” (Chia Tai Tianqing Pharmaceutical Group Co., Ltd., priority 2023, dated 2025)

System: activated partial thromboplastin time (APTT)
Assay: In vivo activity in cynomolgus monkeys, activated partial thromboplastin time in plasma
Conditions: cynomolgus monkey plasma, subcutaneous once, 14 mg/kg (second row, dose by order of Table 17)
Description: On day 7 before administration, female cynomolgus monkeys weighing 2-4 kg were fasted overnight, and about 1 mL of blood was collected from the femoral vein. Plasma was collected by centrifugation. FXI protein (Human Coagulation Factor XI ELISAkit, Thermo, Cat. No. EH118RB), FXI activity (coagulation factor XI assay kit, Stago, Cat. No. 00723), and APTT (activated partial thromboplastin time assay kit, Stago, Cat. No. 00595) were measured. The monkeys were evenly divided into groups based on these indicators. On day 0, the dsRNA ligand conjugates of the present application (TD02M02L01, etc.) were injected. On day 0, day 3, day 7, day 14, day 21, day 28, day 37, day 54, and day 68, plasma was collected to measure plasma FXI protein, FXI activity, and activated partial thromboplastin time (APTT).
The activated partial thromboplastin time prolongation rate was calculated according to the following equation: [formula]
The content of the coagulation factor XI protein, the FXI activity, and the activated partial thromboplastin time in animal plasma were measured before and on day 0, day 3, day 7, day 14, day 21, day 28, day 37, day 54, and day 68 after the subcutaneous administration of the dsRNA ligand conjugates of the present application at doses of 4.2 mg/kg and 14 mg/kg to cynomolgus monkeys (Table 17). […] Table 17. In vivo experimental design

TD02M02L01: dsRNA ligand conjugate: TD02M02 with L01 (GalNAc) ligand at 3' end of sense strand SEQ ID NO 35; antisense SEQ ID NO 36 (sense GGATGATTTTCTTATATCA; antisense TGATATAAGAAAATCATCCTG; GalNAc L01 ligand at sense 3' end, 2'-OMe/2'-F, pattern not given here)
Relative prolongation rate (%) of APTT (D3): 6.0% | Relative prolongation rate (%) of APTT (D7): 25.2% | Relative prolongation rate (%) of APTT (D14): 60.9% | Relative prolongation rate (%) of APTT (D21): 116.0% | Relative prolongation rate (%) of APTT (D28): 70.6% | Relative prolongation rate (%) of APTT (D37): 100.3% | Relative prolongation rate (%) of APTT (D54): 124.4% | Relative prolongation rate (%) of APTT (D68): 132.4%
